{"source": "patent US20260102492A1", "about": "“Inhibition of Natural Killer Cell Cytoxocity” (University of Cincinnati, priority 2022, published 2026)", "key": {"CXCL1 [1]": {"system": "CXCL1", "experiment": "Patient plasma CXCL1 ELISA, trial NCT02641093 (pre and post pembrolizumab)", "format": "in vivo, Human"}, "CXCL1 [2]": {"system": "CXCL1", "experiment": "Plasma CXCL1 of pembrolizumab treated head and neck cancer patients (FIG. 11)", "format": "in vivo, Human", "conditions": "pembrolizumab treated patients vs baseline; preliminary data", "description": "CXCL1 was knocked out by CRISP-Cas9 in NK cells as a novel approach in order to enhance their tumor cytotoxicity. These NK cells can be used as an “off the shelf” anti-cancer therapeutic. […] In addition, CXCL1 functions were inhibited with a CXCR2 inhibitor as an alternative treatment strategy with and without addition of a PD-1 inhibitor. […] In addition, the combination of pembrolizumab and CXCR2 inhibitor (Navaxarin) increases both PBMC and NK cell cytotoxicity (FIGS. 12A, 12B and 13)."}, "[3]": {"system": "HNSCC patient-derived NK cells", "experiment": "CXCL1 ELISA of NK cell culture supernatant", "format": "cell-based, Human", "procedure": "Healthy donor and HNSCC NK cells were isolated from PBMCs and were treated for 24 hrs with vehicle or metformin. Supernatant was collected and analyzed by ELISA (analyzed by one way ANOVA. n=10).\nHNSCC NK cells were isolated from PBMCs and treated with vehicle, 12 mM metformin, 50 ng CXCL1, 10 uM everolimus, or 10 uM BP-1-102 for 24 hr. The cells were washed and plated in fresh media. After 24 hrs, supernatant was collected for ELISA."}, "[4]": {"system": "HNSCC patient-derived NK cells", "experiment": "NK cell perforin ELISA after co-culture with Cal27 cells", "format": "cell-based, Human", "conditions": "for reversal of CXCL1 mediated inhibition of perforin: 50 ng CXCL1, Cal27 4 hours", "procedure": "For NK cell perforin assays, NK cells were treated with drug for 24 hrs, washed, and co-cultured with Cal27 cells for 4 hours. Supernatant was then collected, snap frozen in liquid nitrogen and stored at −80 until thawed for single use. For patient samples, undiluted plasma was added directly to ELISA. ELISA kit for perforin was obtained from ABCAM. ELISA was performed according to the manufacturer's protocol. Protocols included overnight coating of capture antibody diluted by lot number recommendation, 1 hr block with 400 uL 2% BSA in PBS, 2 hr sample incubation at room temperature of 100 uL sample (no dilution of sample was performed in these experiments), 2 hr […] diluted by lot number recommendation, 20 min Streptavidin incubation with 100 uL of 1:40 dilution of stock, and 15 min incubation with 100 uL included TMB ELISA reagent. 50 uL stop solution of in house 2N […] was added to stop reaction before reading at […] wavelength on plate reader. All plates included standard curve prepared per lot number recommendation with range of 35-2000 pg.\nHNSCC patient-derived NK cells were treated with exogenous CXCL1 and an inhibitor of the CXCL1 receptor, CXCR2, or metformin. Patient-derived NK cells were exposed to Cal27 cells for 4 hours and supernatant was collected for perforin analysis by ELISA. Specifically, HNSCC NK cells derived from PBMCs were treated with 50 ng CXCL1, 12 mM metformin, or 10 nM CXCR2i (navarixin) and subjected to perforin against Cal27 target cells. Cells were analyzed by flow and analyzed by one way ANOVA. n=8.\nSpecifically, HNSCC NK cells were treated with vehicle, metformin, or 10 uM AMPK inhibitor (Dosomorphin) for 24 hrs, washed, and co-cultured with Cal27 cells for 4 hrs. Supernatant was collected for ELISA and analyzed by one way ANOVA. n=5.\nHNSCC patient-derived NK cells were treated with vehicle, metformin, 10 uM mTOR inhibitor (Everolimus), or 10 uM mTOR activator (MHY1485) for 24 hrs, washed, and co-cultured with Cal27 cells for 4 hrs. Supernatant was collected for ELISA and analyzed by one way ANOVA. n=5.\nAs pSTAT1 can modulate perforin production, HNSCC patient-derived NK cells were treated with vehicle, […], or 10 uM of pSTAT1i inhibitor Fludarabine for 24 hrs, washed, and co-cultured with Cal27 cells for 4 hrs.\nHNSCC NK cells were treated with vehicle, 12 mM metformin, 50 ng CXCL1, or 10 uM pSTAT3 inhibitor BP-1012 and co-cultured with Cal27 cells for 4 hrs. Supernatant was collected for ELISA and analyzed by one way ANOVA. n=5."}, "pSTAT1": {"system": "pSTAT1", "experiment": "Western blot of HNSCC NK cell lysates, pSTAT1", "format": "cell-based, Human", "conditions": "metformin or 50 ng CXCL1, 24 hrs, FIG. 3A/3B", "procedure": "NK92, Cal27, UMSCC47 and HN5 cells were cultured with drug as described. Cells were collected in RIPA (0.05% sodium deoxycholate, […], 0.1% SDS, 1% NP-40) and protein content was analyzed by Pierce BCA kit (Thermo 23225). 50 ug of protein was diluted in 1×loading buffer (SDS, bromophenol blue, 47% glycerol, Tris 0.5M pH 6.8, 0.2 mM DTT-G) and heated to 90° C. for 3 minutes. Prepared lysate was loaded into gradient gels (Biorad 4561093) and run at 85V for 1.5 hour in Biorad casing with a Biorad powerpack in 1×running buffer (Tris, Glycine, SDS). Gels were transferred on nitrocellulose and run at 100V on bench for 1 hour in 1×transfer buffer (Tris, Glycine). […] Images were analyzed in Image Studio Lite V 5.2.\nTo determine what those pathways could be, pathways known to be affected by both metformin and CXCL1 were investigated. pSTAT3 and mTOR are known to be increased by activation of the CXCR2 receptor, and mTOR activation can inhibit pSTAT1 expression. […] Therefore, HNSCC patient-derived NK cells treated with metformin, CXCL1, or CXCR2i (navaxarin) were collected and analyzed by western blot analysis. Head and neck squamous cell carcinoma (HNSCC) natural killer (NK) cells were treated with metformin, 50 ng CXCL1, or 10 uM CXCR2i (navarixin) for 24 hrs and collected for lysates analyzed by western blot analysis (FIG. 3A)."}, "pSTAT3": {"system": "pSTAT3", "experiment": "Western blot of HNSCC NK cell lysates, pSTAT3", "format": "cell-based, Human", "procedure": "NK92, Cal27, UMSCC47 and HN5 cells were cultured with drug as described. Cells were collected in RIPA (0.05% sodium deoxycholate, […], 0.1% SDS, 1% NP-40) and protein content was analyzed by Pierce BCA kit (Thermo 23225). 50 ug of protein was diluted in 1×loading buffer (SDS, bromophenol blue, 47% glycerol, Tris 0.5M pH 6.8, 0.2 mM DTT-G) and heated to 90° C. for 3 minutes. Prepared lysate was loaded into gradient gels (Biorad 4561093) and run at 85V for 1.5 hour in Biorad casing with a Biorad powerpack in 1×running buffer (Tris, Glycine, SDS). Gels were transferred on nitrocellulose and run at 100V on bench for 1 hour in 1×transfer buffer (Tris, Glycine). Membranes were blocked in 5% BSA in TBS for 1 hr, washed, and incubated in primary diluted in 2% BSA in TBS overnight. Membranes were washed and incubated in Licor secondary (Licor 926-32211 and 925-68070) in 5% BSA in TBS for 1 hr. Membranes were washed and imaged on a Licor Odyssey Clx. Images were analyzed in Image Studio Lite V 5.2.\nTo determine what those pathways could be, pathways known to be affected by both metformin and CXCL1 were investigated. pSTAT3 and mTOR are known to be increased by activation of the CXCR2 receptor, and mTOR activation can inhibit pSTAT1 expression. Metformin is also hypothesized to inhibit pSTAT3 and mTOR in NK cells. Therefore, HNSCC patient-derived NK cells treated with metformin, CXCL1, or CXCR2i (navaxarin) were collected and analyzed by western blot analysis. Head and neck squamous cell carcinoma (HNSCC) natural killer (NK) cells were treated with metformin, 50 ng CXCL1, or 10 uM CXCR2i (navarixin) for 24 hrs and collected for lysates analyzed by western blot analysis (FIG. 3A)."}, "HNC cells": {"system": "HNC cells", "experiment": "Natural killer cytotoxicity assay (NKCA), NK cells against CFSE labeled HNC cells (7AAD)", "format": "cell-based", "conditions": "exogenous CXCL1 added to metformin treated NK cells", "procedure": "FIG. 12B is a graph showing NK cells that were treated with either pembrolizumab (PD-1 inhibitor), exogenous CXCL1, Navaxarin (CXCR2 inhibitor) or combination and combined with CFSE labeled HNC cells. Cytotoxicity was measured by 7AAD 4 hours after incubation. N=5, PBMCS or NK cells isolated from the same PBMCs from patient samples.\nNK cells were isolated from PBMCs using the EasySep Human NK Cell Isolation Kit (Stem Cell Technologies). Cells were washed in Robobuffer and treated with drug indicated in legend for 24 hrs in culture medium. One day before co-culture, cells were collected, washed, and stained with 5(6)-Carboxyfluorescein diacetate N-succinimidyl ester (CFDA-SE) (StemCell Technologies). Untreated UMSCC47, Cal-27, or matched primary HNC tumor cell lines cells were plated at 20,000 cell/ml and assumed to double overnight. NK cells were resuspended in RPMI 1640 (Corning) with 5% human serum at a density of 200,000 cells/ml. Cells were co-cultured for a Target:Effector ratio of 1:5 for 4 hrs, collected, and washed in flow buffer. Cells were then stained with 7AAD Viability Staining Solution (Biolegend). Cells were immediately run on a 4-laser BD Instrument (University of Cincinnati Cancer Cell Biology Department, Cincinnati, Ohio). […] NK killed cells were calculated by the following equation: (% CSFE+7AAD+experimental co-culture)−(% CSFE+7AAD+control no co-culture)."}, "[5]": {"conditions": "combination of 10 uM everolimus and 10 uM BP-1-102, also with 50 ng CXCL1, n=5"}, "[6]": {"conditions": "single agent (12 mM metformin, 10 uM everolimus or 10 uM BP-1-102) 24 hr, fresh media 24 hrs, n=5, FIG. 8"}, "[7]": {"conditions": "10 uM single agent 24 hrs, Cal27 co-culture 4 hrs, n=5, FIG. 5"}}, "data": [{"compound": "pembrolizumab", "values": [{"measurement": "plasma CXCL1", "setting": "CXCL1 [1]; all patients, post vs pre pembrolizumab, FIG. 10A", "value": "significant increase in CXCL1"}, {"measurement": "plasma CXCL1", "setting": "CXCL1 [1]; divided into responders and non-responders, n=10 each, FIG. 10B", "value": "non-responders accounted for the increase"}, {"measurement": "plasma CXCL1", "setting": "CXCL1 [1]; divided into responders and non-responders, n=10 each, FIG. 10B, listed as Pembrolizumab", "value": "increased with non-responders"}, {"measurement": "CXCL1 in plasma", "setting": "CXCL1 [2]", "value": "trend to higher levels of CXCL1"}]}, {"compound": "CN(CC(=O)N(Cc1ccc(C2CCCCC2)cc1)c1ccc(C(=O)O)c(O)c1)S(=O)(=O)c1c(F)c(F)c(F)c(F)c1F", "note": "[BP-1-102]", "values": [{"measurement": "CXCL1 secretion", "setting": "[3]; [5]", "value": "decreased levels down to those similar of metformin even in the presence of CXCL1"}, {"measurement": "CXCL1 secretion", "setting": "[3]; [6]", "value": "did not reduce CXCL1"}, {"measurement": "rescue of CXCL1 mediated suppression of perforin", "setting": "[4]; 10 uM pSTAT3 inhibitor with 50 ng CXCL1, alone or with 12 mM metformin, Cal27 4 hrs, n=5", "value": "able to rescue CXCL1 mediated suppression of perforin both alone or in presence of metformin"}, {"measurement": "perforin", "setting": "[4]; 10 uM pSTAT3 inhibitor, baseline, Cal27 co-culture 4 hrs, n=5, FIG. 7", "value": "no effect on perforin at baseline"}]}, {"compound": "O=[N+]([O-])c1ccc(Nc2nc(N3CCOCC3)nc(N3CCOCC3)n2)cc1", "note": "[MHY1485]", "values": [{"measurement": "perforin production", "setting": "[4]; [7]", "value": "did not result in suppression of perforin"}]}, {"compound": "C-X-C motif chemokine ligand 1 [CXCL1]", "values": [{"measurement": "perforin production", "setting": "[4]; 12 mM metformin or 50 ng CXCL1, Cal27 target cells 4 hours, n=8, FIG. 2", "value": "reduced NK cell perforin production"}, {"measurement": "metformin mediated NK degranulation", "setting": "[4]; exogenous CXCL1 added to metformin, FIG. 2", "value": "reverses metformin mediated NK degranulation"}, {"measurement": "pSTAT1", "setting": "pSTAT1", "value": "did not reverse pSTAT1 expression with metformin or change it from baseline"}, {"measurement": "metformin reduction of pSTAT3", "setting": "pSTAT3; exogenous CXCL1 (50 ng) together with metformin, 24 hrs", "value": "reversed"}, {"measurement": "pSTAT3", "setting": "pSTAT3; metformin or 50 ng CXCL1, 24 hrs, western blot, FIG. 3A/3B", "value": "increases pSTAT3"}, {"measurement": "metformin induced cytotoxicity", "setting": "HNC cells", "value": "ablated metformin induced cytotoxicity"}]}, {"compound": "CC[C@@H](Nc1c(Nc2cccc(C(=O)N(C)C)c2O)c(=O)c1=O)c1ccc(C)o1", "note": "[CXCR2 inhibitor, Navarixin]", "values": [{"measurement": "reversal of CXCL1 mediated inhibition of perforin", "setting": "[4]; 10 nM CXCR2i (navarixin) alone, n=8", "value": "reversed CXCL1 mediated inhibition"}, {"measurement": "reversal of CXCL1 mediated inhibition of perforin", "setting": "[4]; 10 nM CXCR2i (navarixin) in combination with 12 mM metformin, n=8", "value": "reversed CXCL1 mediated inhibition"}]}, {"compound": "CO[C@H]1C[C@@H]2CC[C@@H](C)[C@@](O)(O2)C(=O)C(=O)N2CCCC[C@H]2C(=O)O[C@H]([C@H](C)C[C@@H]2CC[C@@H](OCCO)[C@H](OC)C2)CC(=O)[C@H](C)/C=C(\\C)[C@@H](O)[C@@H](OC)C(=O)[C@H](C)C[C@H](C)/C=C/C=C/C=C/1C", "note": "[Everolimus]", "values": [{"measurement": "CXCL1 secretion", "setting": "[3]; [5]", "value": "decreased levels down to those similar of metformin even in the presence of CXCL1"}, {"measurement": "CXCL1 secretion", "setting": "[3]; [6]", "value": "did not reduce CXCL1"}, {"measurement": "perforin production", "setting": "[4]; 10 uM Everolimus in combination with metformin 24 hrs, Cal27 co-culture 4 hrs, n=5", "value": "did not increase perforin over either agent alone"}, {"measurement": "perforin production", "setting": "[4]; [7]", "value": "enhanced perforin production similar to metformin"}]}]}
